Laboratory results: patent US20130108688A1, “Delivery of H2 Antagonists” (Trustees of Boston University, priority 2004, published 2013)
Where two headings read alike, the source gives them in different places.

Experiments:
immunized normal cells = conditions: in vitro; optimum enhancement at lower dosage (10 μg) on first day; cited from earlier work
[1] = system: CD8 (cytotoxic/suppressor) and CD4 (helper/inducer) lymphocytes; conditions: 800 mg daily for 7 days; cited from earlier work
lymphocyte = conditions: cited from earlier work
neutrophils = conditions: cited from earlier work
[2] = AIDS patients; cited from earlier work
[3] = system: P. gingivalis and ligature-induced experimental periodontitis
[4] = topical application to the oral cavity; cited from earlier work
[5] = system: P. gingivalis-induced periodontitis; conditions: three doses; p<0.05
[6] = system: P. gingivalis-induced periodontitis; conditions: for overall effect on tissue destruction and inflammatory cell infiltrate: local administration, three dosages; for linear distance from the epithelium to the alveolar crest border, ratio ligated/non-ligated sites (FIG. 6A): tip, middle and base of the crest
Method: In total, 21 New Zealand White rabbits (male, 3.5-4.0 kg each) were used in the experiments presented herein. Three different doses of Cimetidine (0.1, 1.0 and 10 μg/mL) have been prepared in paucilamellar liposomes (NOVASOME®). The animals were distributed as follows: Group A: Ligature alone (2 rabbits); Group B: Ligature+P. gingivalis (4 rabbits); Group C: Ligature+P. gingivalis+liposome (NOVASOME®) alone; Group D: Ligature+P. gingivalis+NOVASOME® preparation comprising 0.1 μg/mL of Cimetidine (4 rabbits); Group E: Ligature+P. gingivalis+NOVASOME® preparation comprising 1.0 μg/mL of Cimetidine (4 rabbits); and Group F: Ligature+P. gingivalis+NOVASOME® preparation comprising 10 μg/mL of Cimetidine (4 rabbits). All animals were purchased from Pine Acre Farms (Berthoud, Co.). The weight of the animals was strictly controlled and all animals weighed between 3.5-4.0 kg at the time of the initial experimentation. The animals were kept in individual cages, received water ad libitum, and were fed with specialized food (chow) for at least 5 days for acclimatization by experienced and licensed laboratory technicians at the Laboratory Animal Science Center at BUMC (BUMC LASC).
Ligature placement was performed under general anesthesia using ketamine (40 mg/kg) and xylazine (5 mg/kg) injections. […] Animals in group A received ligature only while animals in groups B, C, D, E, and F received P. gingivalis in addition to ligature placement.
P. gingivalis (strain A74376) was grown as previously described. Briefly, bacteria were cultured on agar plates containing trypticase soy agar supplemented with 0.5% (w/v) yeast extract, 5% defibrinated sheep red blood cells, […], and 1 μg/mL vitamin K. Plates were incubated for 3 days at 37° C. in jars anaerobically maintained through palladium catalyzed hydrogen/carbon dioxide envelopes (GasPak Plus, BD Microbiology Systems, Sparks, Md.). Colonies were randomly selected and anaerobically cultured overnight at 37° C. in Schaedler's broth supplemented with vitamin K and hemin. Bacteria numbers were spectrophotometrically determined at 600 nm and 10^9 CFU (0.8 OD) were mixed with carboxymethylcellulose to form a thick slurry, which was applied topically to the ligated teeth. The sutures were checked at every appointment, and lost or loose sutures were replaced.
Topical application was performed in animals of Groups D, E, and F every other day for 6 weeks under inhalation anesthesia using isoflurane (4.0 MAC/2.0 MAC). In these groups, Cimetidine was applied at three different doses. Cimetidine preparations were delivered in liposomes (NOVASOME®) that served as a vehicle for the H2 receptor antagonist. In order to see if liposome application alone would have any effect on the outcome, animals in Group C received liposomes without Cimetidine (i.e., NOVASOME® alone) in addition to ligature placement and P. gingivalis.
For histological analysis, the other half of the mandible was immersed in a volume of immunocal (Decal Corporation, Tallman, N.Y.) equal to at least 10 times the size of the section; the solution was replaced every 24 hours for 72 hours. Decalcification was assessed and confirmed by serial radiographs, which were taken every other day during two weeks.
The tissue was kept in this solution for 2-3 minutes, rinsed again in flowing deionized water for at least 3 minutes and kept in formalin for at least 24 hours before embedding in paraffin. Thin sections (5 μm) were cut and sections were conventionally stained with hematoxylin and eosin (H&E) to identify the cellular composition of the inflammatory infiltrates, and one hundred seventy (170) 5 μm-sections were stained with tartrate-resistant acid phosphatase (TRAP) to detect osteoclastic activity.
The data obtained by direct measurements during morphologic assessment and by histomorphometric measurements was used in multiple statistical analyses.

H2 receptor = conditions: via H2 receptor; cited from earlier work

| Structure (SMILES) | primary humoral antibody response (immunized normal cells) | CD4 (helper/inducer) lymphocytes [1] | CD8 (cytotoxic/suppressor) lymphocytes [1] | immunomodulating effect among H2 receptor antagonists (cimetidine, ranitidine, famotidine) (lymphocyte) | superoxide (O2·-) and hydrogen peroxide (H2O2) production of neutrophils (neutrophils) | clinical symptoms of disease [2] | preventive effect on bone loss, quantitative analysis of defleshed bone specimens (FIG. 2) ([3]; all three doses vs liposome (NOVASOME) placebo, p<0.05, ANOVA) | gingival inflammation and bone destruction (macroscopic, FIG. 1) ([3]; topical, in NOVASOME liposomes, 0.1, 1.0 and 10 μg/mL, every other day for 6 weeks, Groups D, E, F) | resolution of intra- and peri-oral warts [4] | percentage of bone loss as calculated by Bjorn technique (FIG. 3 lower panel) [5] | overall effect on tissue destruction and inflammatory cell infiltrate [6] | overall effect on tissue destruction and inflammatory cell infiltrate ([6]; listed as cimetidine) | total, ligatured and ratio of ligatured/non-ligatured areas of the alveolar crest (FIG. 6B) ([6]; three doses) | linear distance from the epithelium to the alveolar crest border, ratio ligated/non-ligated sites (FIG. 6A) ([6]; three doses) | linear distance from the epithelium to the alveolar crest border, ratio ligated/non-ligated sites (FIG. 6A) ([6]; three doses, listed as cimetidine) | bone loss and inflammatory changes, H&E stained sections (FIG. 4) ([6]; topical 0.1, 1.0 and 10 μg/mL, Groups D, E, F) | histamine-mediated increase in IL-α induced IL-6 synthesis (H2 receptor) |
| --- | --- | --- | --- | --- | --- | --- | --- | --- | --- | --- | --- | --- | --- | --- | --- | --- | --- |
| C/N=C(\S)NCCSCc1[nH]cnc1C [metiamide] | markedly influence | – | – | – | – | – | – | – | – | – | – | – | – | – | – | – | – |
| CN/C(=N/CCSCc1nc[nH]c1C)NC#N [Cimetidine] | markedly influence | corresponding increase | decrease | strongest immunomodulating effect | reduces | significant improvement effect | statistically significant | prevented the gingival inflammation and bone destruction in a significant and comparable way with no apparent dose-dependent effect | complete resolution | prevents the destructive effects of P. gingivalis-induced periodontitis | prevent bone loss, inflammatory cell infiltration, and connective tissue destruction | inhibits P. gingivalis-elicited leukocyte migration toward the site of infection | no significant differences between the cimetidine groups | significantly increased (p<0.05) distances compared to the Cimetidine-treated groups | almost similar, insignificant (p>0.05) mean ratio values | prevent both bone loss and inflammatory changes | completely reverse |
